Experimental data taken from publication PMC6270258, “Diosgenone Synthesis, Anti-Malarial Activity and QSAR of Analogues of This Natural Product” (Molecules, 2013).
Where two headings read alike, the source gives them in different places.

Experiments:
[1] = system: Plasmodium falciparum FCB-2 (chloroquine-resistant) strain; experiment: In vitro antiplasmodial activity, [3H]hypoxanthine incorporation, FCB-2 strain; type: cell-based; settings: for antiplasmodial activity (in words): P. falciparum FCB-2 and NF-54 strains, compared to diosgenone or parent; for IC50: Plasmodium falciparum; for RI (resistance index): IC50 FCB-2 (resistant strain)/IC50 NF-54 (sensitive strain)
Description: (§1) A 10 mg/mL stock solution was prepared. […] A 50 μL sample was extracted from this solution and adjusted to 1,000 μL with RPMI-1640 without hypoxanthine until a final 500 μg/mL concentration was reached. The P. falciparum FcB-2 (Colombia) and NF54 (The Netherlands) strains were used for assessing anti-malarial activity.
(§2) Trager and Jensen’s method was used for culturing strains [24, 25]. The methods described by Desjardins et al. [26] were used for evaluating the structural analogs’ in vitro antiplasmodial activity, with some modifications. […] 1.0 µCi/mL of [3H] hypoxanthine (MP Biomedicals, Santa Ana, CA, USA) was added to each well and the plates were then incubated for 48 h at 37 °C in 5% CO2, 5% O2 in a balanced N2 atmosphere. Parasite DNA was harvested and radioactivity was determined by automatic TDCR liquid scintillation counter plate (Chameleon, Hidex Oy, Finland). Experiments were repeated twice with two or three replicates each. A nonlinear regression sigmoidal dose-response (variable slope) model was used to estimate concentration inhibiting 50% growth (IC50) values for each derivative.

[2] = system: Plasmodium falciparum NF-54 strain; experiment: In vitro antiplasmodial activity, [3H]hypoxanthine incorporation, NF-54 strain; type: cell-based; settings: 48 h, read-out: IC50 μM ± SD NF-54
Description: as §1, §2

[3] = Cytotoxicity, MTT colorimetric test; type: cell-based, human; settings: human
Description: (§3) Steroidal derivatives’ cytotoxicity regarding the HepG2-A16 cell line was evaluated by colorimetric test using 3-(4,5-dimethylthiazolyl-2)-2,5-diphenyltetrazolium bromide (MTT), as described by Mosmann [28]. […] An aliquot of each derivative dilution (100 μL, 1,000, 100, 10 and 1 μg/mL) was then added to the wells in triplicate. […] The DMSO diluent agent was evaluated in complete medium and negative controls (untreated cells) were included. Absorbance was measured at 550 nm and statistical Prism software version 5.0 (GraphPad Software Inc., La Jolla, CA, USA) was used for calculating toxic concentration (CC50). Amphotericin B was used as positive control in this assay.

[4] = system: HepG2-A16 human hepatoma cells; experiment: Cytotoxicity, MTT colorimetric test; type: cell-based; settings: for SI (selectivity index): CC50 HepG2/IC50 parasite FCB-2
Description: as §3

[5] = system: Plasmodium berghei (ANKA strain); experiment: Peters' 4-day suppressive test in P. berghei-infected mice; type: in vivo, Plasmodium berghei in Balb/C mice
Description: Antimalarial activity was expressed as the percentage of parasite multiplication inhibition.
Antimalarial activity was assessed in vivo in the P. berghei rodent malaria model according to Peters’ 4-day suppressive test in P. berghei-infected (ANKA strain), 5–6 week-old Balb/C mice (males and females) weighing 23 ± 5 g; parasitemia kinetics were evaluated following treatment [2]. […] The donor mice were anesthetized with a 5 mg/kg xylazine and 50 mg/kg ketamine cocktail; blood was then collected via intracardiac route and 100 uL of 5 × 10^6 P. berghei ANKA-parasitised parasitized erythrocytes per experimental mouse were inoculated. Mouse infection was checked one day later by thin smear blood test and Giemsa staining.

[6] = 48 h, P. falciparum FCB-2 chloroquine-resistant strain, 48 h, read-out: IC50 μM ± SD FCB-2
[7] = P. falciparum NF-54 chloroquine-sensitive strain
[8] = HepG2-A16 cells, MTT, 48 h, read-out: CC50
[9] = HepG2-A16 human hepatoma cells, HepG2-A16 cells, MTT, 48 h, read-out: CC50
[10] = 48 h, read-out: IC50 μM ± SD FCB-2

| SMILES | antiplasmodial activity (in words) [1] | IC50 [1, 6] | IC50 [2, 7] | CC50 at 48 h [3] | melting point | RI (resistance index) [1] | SI (selectivity index) [4] | also measured |
| --- | --- | --- | --- | --- | --- | --- | --- | --- |
| CC(=O)OC1CC[C@@]2(C)C(=CC[C@H]3[C@@H]4C[C@@H]5O[C@]6(CC[C@@H](C)CO6)[C@@H](C)[C@@H]5[C@@]4(C)CC[C@@H]32)C1 (stereo partly drawn) [Compound 16, (25R)-3-Acetoxy-spirostan-5-ene] | neither active | > 438 µM | > 438 µM | > 2190 µM | 182 to 184 °C |  |  | cytotoxicity (in words) [4]: nor toxic |
| Cc1ccc(S(=O)(=O)NN=C2C=C3CCC4C(CCC5(C)C4CC4OC6(CCC(C)CO6)C(C)C45)C3(C)CC2)cc1 [Compound 9, (25R)-3-p-Toluenehydrazine-spirostan-4-ene] | marginal activity compared to diosgenone | 56.1 ± 0.3 µM | 52.5 ± 7.7 µM | > 1170 µM | 148 to 150 °C | 1.1 |  |  |
| CC(=O)[C@H]1CC[C@H]2[C@@H]3CCC4=CC(=O)CC[C@]4(C)[C@H]3CC[C@]12C [Compound 5, 4-Pregnene-3,20-dione, reference compound] | displayed antiplasmodial activity | 38.2 ± 1.2 µM | 25.4 ± 1.6 µM |  |  | 1.5 | 5.0 | CC50 at 48 h [3, 8]: 193 µM |
| C[C@@H]1CC[C@@]2(OC1)O[C@H]1C[C@H]3[C@@H]4CCC5=CC(=O)C=C[C@]5(C)[C@H]4CC[C@]3(C)[C@H]1[C@@H]2C [Compound 12, (25R)-1,4-Spirostadien-3-one] |  | 36 ± 2.3 µM | 29.2 ± 1.1 µM | > 487 µM | 181 to 183 °C | 1.2 |  |  |
| CC(=O)OC1C[C@H]2[C@@H]3CCC4CC(=O)CC[C@]4(C)[C@H]3CC[C@]2(C)[C@H]1[C@H](C)C(=O)CC[C@@H](C)CO (stereo partly drawn) [Compound 22, (25R)-16-Acetoxy-26-hydroxy-cholestan-3,22-dione] |  | 94.2 ± 5.3 µM | 62.1 ± 8.9 µM | 82.4 µM |  | 1.5 | 0.9 |  |
| CC(=O)O[C@H]1CC[C@@]2(C)C(=CCC3C4C[C@H](OC(C)=O)C(C(C)C5=C(C(C)=O)C[C@@H](C)CO5)[C@@]4(C)CCC32)C1 (stereo partly drawn) [Compound 20, (25R)-23-Acetyl-3,16-diacetoxy-22,23-pyran-cholesta-5,22-diene] | neither active | > 380 µM | > 380 µM | > 1900 µM |  |  |  | cytotoxicity (in words) [4]: nor toxic |
| C[C@@H]1CC[C@@]2(OC1)O[C@H]1C[C@H]3[C@@H]4CC(=O)C5=CC(=O)CC[C@]5(C)[C@H]4CC[C@]3(C)[C@H]1[C@@H]2C [Compound 18, (25R)-4-Spirosten-3,6-dione] | more active than diosgenone | 11.3 ± 1.6 µM | 9.8 ± 1 µM | 192 µM | 200 to 202 °C | 1.2 | 16.9 | reduction in parasitemia ([5]; 100 mg/kg oral, 4 daily doses): 35.0% |
| C[C@@H]1[C@H](O)[C@@H](C)/C=C/C=C/C=C/C=C/C=C/C=C/C=C/[C@H](O[C@@H]2O[C@H](C)[C@@H](O)[C@H](N)[C@@H]2O)C[C@@H]2O[C@](O)(C[C@@H](O)C[C@@H](O)[C@H](O)CC[C@@H](O)C[C@@H](O)CC(=O)O[C@H]1C)C[C@H](O)[C@H]2C(=O)O [AF-B, amphotericin B, reference compound] |  |  |  |  |  |  |  | CC50 at 48 h [3, 9]: 39.6 µM |
| C[C@@H]1CC[C@@]2(OC1)O[C@H]1C[C@H]3[C@@H]4CCC5CC(=O)CC[C@]5(C)[C@H]4CC[C@]3(C)[C@H]1[C@@H]2C (stereo partly drawn) [Compound 11, (25R)-Spirostan-3-one] | inactive against both P. falciparum strains | > 482 µM | > 482 µM |  |  |  |  | CC50 at 48 h [3, 9]: > 916 µM |
| CC(=O)OC[C@H](C)CCC(=O)[C@@H](C)[C@H]1C(OC(C)=O)C[C@H]2[C@@H]3CCC4=CC(=O)CC[C@]4(C)[C@H]3CC[C@]12C (stereo partly drawn) [Compound 23, (25R)-16,26-Diacetoxy-4-cholesten-3,22-dione] |  | 17.3 ± 1.4 µM | 0.6 ± 0.9 µM | 281 µM |  | 28.8 | 16.2 | cytotoxicity (in words) [4]: less toxic |
| C[C@@H]1CC[C@@]2(OC1)O[C@H]1C[C@H]3[C@@H]4CCC56OC5C(=O)CC[C@]6(C)[C@H]4CC[C@]3(C)[C@H]1[C@@H]2C (stereo partly drawn) [Compound 10, (25R)-4,5-Epoxy-spirostan-3-one] | marginal activity compared to diosgenone | 56.7 ± 6.3 µM | 106 ± 7.7 µM | 101 µM | 184 to 186 °C | 0.5 | 1.8 |  |
| C[C@@H]1CC[C@@]2(OC1)O[C@H]1C[C@H]3[C@@H]4CC=C5C[C@@H](O)CC[C@]5(C)[C@H]4CC[C@]3(C)[C@H]1[C@@H]2C [Compound 1, (25R)-5-spirosten-3β-ol, reference compound] | lacked antiplasmodial activity | > 482 µM | > 482 µM |  |  |  |  | CC50 at 48 h [3, 8]: 1110 µM |
| C[C@@H](CI)CCC(=O)[C@@H](C)[C@H]1C(=O)CC2C3CCC4=CC(=O)CC[C@]4(C)C3CC[C@@]21C (stereo partly drawn) [Compound 15, (25R)-26-Iodine-cholest-4-en-3,16,22-trione] |  | 2.9 ± 0.3 µM | 2.2 ± 0.4 µM | 90.2 µM | 148 to 150 °C | 1.3 | 31.1 |  |
| CCN(CC)CCCC(C)Nc1ccnc2cc(Cl)ccc12 (stereo not shown) [CQ, chloroquine, reference compound] |  |  |  |  |  |  |  | IC50 [1, 10]: 0.157 ± 0.01 µM; IC50 ([1]; read-out: IC50 in the FCB-2 strain): 0.158 µM; IC50 [2]: 0.02 ± 0.005 µM; reduction of parasitemia ([5]; 5 mg/kg oral, second day of treatment): 100.0% |
| C[C@@H]1CC[C@@]2(OC1)O[C@H]1C[C@H]3[C@@H]4CC=C5C=CCC[C@]5(C)[C@H]4CC[C@]3(C)[C@H]1[C@@H]2C [Compound 19, (25R)-3,5-Spirostadiene] | neither active | 438 ± 12 µM | 370 ± 8.3 µM |  |  | 1.2 |  | CC50 at 48 h [3, 9]: > 2520 µM; cytotoxicity (in words) ([4]; HepG2-A16 cells): nor toxic |
| CC1=CC[C@@]2(C)C(=C1)CC[C@H]1[C@@H]3C[C@@H]4O[C@]5(CC[C@@H](C)CO5)[C@@H](C)[C@@H]4[C@@]3(C)CC[C@@H]12 [Compound 7, (25R)-3-Methyl-spirostan-2,4-diene] | marginal activity compared to diosgenone | 70.4 ± 5.5 µM | 34.6 ± 3.3 µM | 217 µM | 172 to 174 °C | 2.0 | 3.1 |  |
| CC(=O)OC1C[C@H]2[C@@H]3CCC4=CC(=O)CC[C@]4(C)[C@H]3CC[C@]2(C)[C@H]1[C@H](C)C(=O)CC[C@@H](C)C=O (stereo partly drawn) [Compound 21, (25R)-16-Acetoxy-4-cholesten-3,22-dione-26-al] |  | 92.2 ± 12.3 µM | 70.8 ± 0.8 µM | 424 µM |  | 1.3 | 4.6 |  |
| C[C@@H]1CC[C@@]2(OC1)O[C@H]1C[C@H]3[C@@H]4CC5OC56CC(O)CC[C@]6(C)[C@H]4CC[C@]3(C)[C@H]1[C@@H]2C (stereo partly drawn) [Compound 17, (25R)-5,6-Epoxy-spirostan-3-ol] | neither active | > 409 µM | 184 µM | > 2050 µM | 97 to 99 °C | 2.2 |  | cytotoxicity (in words) [4]: nor toxic |
| CC(=O)OC1C[C@H]2[C@@H]3CCC4=CC(O)CC[C@]4(C)[C@H]3CC[C@]2(C)[C@H]1[C@H](C)C(O)CC[C@@H](C)CO (stereo partly drawn) [Compound 24, (25R)-16-Acetoxy-4-cholesten-3,22,26-triol] |  | 95 ± 7.3 µM | 101 ± 9.9 µM | 306 µM | 144 to 146 °C | 0.9 | 3.2 |  |
| C[C@@H]1CC[C@@]2(OC1)O[C@H]1C[C@H]3[C@@H]4CCC5=CC(O)(Cc6ccccc6)CC[C@]5(C)[C@H]4CC[C@]3(C)[C@H]1[C@@H]2C (stereo partly drawn) [Compound 8, (25R)-3-Benzyl-spirostan-4-en-3-ol] | inactive against both P. falciparum strains | > 396 µM | > 396 µM | > 1980 µM | 203 to 205 °C |  |  |  |
| C[C@H](C(=O)CC[C@@H](C)C=O)[C@H]1C(=O)C[C@H]2[C@@H]3CCC4=CC(=O)CC[C@]4(C)[C@H]3CC[C@]12C [Compound 25] |  |  |  |  |  | 1.3 | 0.4 | IC50 [1, 10]: 123 ± 12.8 µM; IC50 [2]: 95.9 ± 8.3 µM; CC50 at 48 h [3, 8]: 45.2 µM |
| C[C@@H]1CC[C@@]2(OC1)O[C@H]1C[C@H]3[C@@H]4CCC5=CC(O)CC[C@]5(C)[C@H]4CC[C@]3(C)[C@H]1[C@@H]2C (stereo partly drawn) [Compound 13, (25R)-4-Spirosten-3-ol] | marginal activity compared to diosgenone | 63.2 ± 0.3 µM | 71.9 ± 0.3 µM |  |  | 0.9 |  | CC50 at 48 h [3, 9]: > 2410 µM |
| CC(=O)[C@@]1(O)CC[C@H]2[C@@H]3CCC4=CC(=O)CC[C@]4(C)[C@H]3CC[C@@]21C [Compound 6, 17-hydroxy-4-pregnene-3,20-dione, reference compound] | inactive |  |  |  |  | 1.0 |  | IC50 ([1]; 48 h, read-out: IC50 μM ± SD FCB-2, P. falciparum FCB-2 chloroquine-resistant strain, 48 h): > 303 µM; IC50 [2]: > 303 µM; CC50 at 48 h [3, 9]: > 1140 µM |
